In PubChem BioAssay AID248 (DTP/NCI, 2004):
“And” between values parts separate entries of the source, which are not always exact repeats. Identical values can stand only once. Toxic doses and inconclusive results are not listed. Rule as the data show it: active = T/C of 150% or more; inactive = T/C below 125%.

Test system: L1210 leukemia ip in BDF1 mice, survival T/C
Assay: NCI In Vivo Anticancer Drug Screen. Data for tumor model L1210 Leukemia (intraperitoneal) in B6D2F1 (BDF1) mice
Conditions: endpoint: mean survival time, higher = longer survival
Outline: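 Value reflects the ratio of survival in compound-treated mice to survival in vehicle-treated controls, with both groups carrying the same transplanted tumor.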

[1] = dose: 100.0 mg/kg/injection, schedule: Q04DX002 (ip), vehicle: saline with Tween-80
[2] = dose: 200.0 mg/kg/injection, schedule: Q04DX002 (ip), vehicle: saline with Tween-80
[3] = dose: 400.0 mg/kg/injection, schedule: Q04DX002 (ip), vehicle: saline with Tween-80
[4] = dose: 100.0 mg/kg/injection, schedule: Q01DX009 (ip), vehicle: saline with Tween-80
[5] = dose: 200.0 mg/kg/injection, schedule: Q01DX009 (ip), vehicle: saline with Tween-80
[6] = dose: 400.0 mg/kg/injection, schedule: Q01DX009 (ip), vehicle: saline with Tween-80
[7] = dose: 100.0 mg/kg/injection, schedule: Q01DX001 (ip), vehicle: saline with Tween-80
[8] = dose: 100.0 mg/kg/injection, schedule: Q04DX002 (ip), vehicle: Klucel (hydroxypropylcellulose) (HPC)
[9] = dose: 200.0 mg/kg/injection, schedule: Q04DX002 (ip), vehicle: Klucel (hydroxypropylcellulose) (HPC)
[10] = dose: 400.0 mg/kg/injection, schedule: Q04DX002 (ip), vehicle: Klucel (hydroxypropylcellulose) (HPC)
[11] = dose: 100.0 mg/kg/injection, schedule: Q04DX003 (ip), vehicle: Klucel (hydroxypropylcellulose) (HPC)
[12] = dose: 200.0 mg/kg/injection, schedule: Q04DX003 (ip), vehicle: Klucel (hydroxypropylcellulose) (HPC)
[13] = dose: 400.0 mg/kg/injection, schedule: Q04DX003 (ip), vehicle: Klucel (hydroxypropylcellulose) (HPC)
[14] = dose: 100.0 mg/kg/injection, schedule: Q01DX001 (ip), vehicle: saline
[15] = dose: 200.0 mg/kg/injection, schedule: Q01DX001 (ip), vehicle: saline
[16] = dose: 400.0 mg/kg/injection, schedule: Q01DX001 (ip), vehicle: saline

Measured: T/C

CC12CCCCC1C(C(=O)O)CC2 (stereo unspecified)
inactive: [1] 105 % of control | [2] 105 % of control | [3] 92 % of control

CN(C)C(=O)N1CCCCC1
inactive: [1] 101 % of control | [2] 93 % of control | [3] 111 % of control

Cc1ccc(CCCC(=O)O)c(C)c1
inactive: [4] 105 % of control | [5] 92 % of control | [6] 96 % of control

Cc1cccc(N=Cc2ccc(Cl)cc2Cl)c1C
inactive: dose: 100.0 mg/kg/injection, schedule: Q01DX009 (ip), vehicle: alcohol 95 % of control | [1] 106 % of control | dose: 200.0 mg/kg/injection, schedule: Q01DX009 (ip), vehicle: alcohol 87 % of control | [2] 102 % of control | [3] 98 % of control

CC(=O)c1sc2sc(C(C)=O)c(NC(=S)Nc3cccc(C(F)(F)F)c3)c2c1NC(=S)Nc1cccc(C(F)(F)F)c1
inactive: dose: 50.0 mg/kg/injection, schedule: Q04DX002 (ip), vehicle: saline with Tween-80 98 % of control and 99 % of control | [7] 96 % of control | [4] 96 % of control and 89 % of control | dose: 100.0 mg/kg/injection, schedule: Q04DX003 (ip), vehicle: saline with Tween-80 93 % of control | dose: 200.0 mg/kg/injection, schedule: Q01DX001 (ip), vehicle: saline with Tween-80 92 % of control | [5] 101 % of control and 86 % of control | dose: 200.0 mg/kg/injection, schedule: Q04DX003 (ip), vehicle: saline with Tween-80 90 % of control | dose: 400.0 mg/kg/injection, schedule: Q01DX001 (ip), vehicle: saline with Tween-80 100 % of control | [6] 96 % of control and 91 % of control

CCOc1cc(OCC)c(OCC)cc1/C=C1\N=C(c2ccccc2)OC1=O
inactive: [8] 96 % of control | [9] 96 % of control | [10] 96 % of control

CC(=O)Nc1ccc(F)c(Cl)c1F
inactive: [8] 121 % of control | [9] 105 % of control | [10] 102 % of control

COc1ccccc1NC(=O)c1ccc(Cl)cc1
inactive: dose: 100.0 mg/kg/injection, schedule: Q01DX009 (ip), vehicle: Klucel (hydroxypropylcellulose) (HPC) 91 % of control | [11] 105 % of control | dose: 200.0 mg/kg/injection, schedule: Q01DX009 (ip), vehicle: Klucel (hydroxypropylcellulose) (HPC) 98 % of control | [12] 108 % of control | dose: 400.0 mg/kg/injection, schedule: Q01DX009 (ip), vehicle: Klucel (hydroxypropylcellulose) (HPC) 102 % of control | [13] 97 % of control

COc1cc2c(cc1OC(C)=O)C(=O)C(Br)CCC2 (stereo unspecified)
inactive: dose: 50.0 mg/kg/injection, schedule: Q01DX009 (ip), vehicle: saline with Tween-80 90 % of control | [4] 101 % of control | [5] 93 % of control

Cc1cc(=O)[nH]c2ccc(Cc3ccc(Cl)cc3)cc12
inactive: [14] 97 % of control | [15] 98 % of control | [16] 95 % of control

COc1ccc2c(c1)c(=NCCCCN=c1c3cc(OC)ccc3n(O)c3cc(Cl)ccc13)c1cc(Cl)ccc1n2O
inactive: dose: 12.5 mg/kg/injection, schedule: Q01DX009 (ip), vehicle: other 93 % of control | dose: 25.0 mg/kg/injection, schedule: Q01DX009 (ip), vehicle: other 93 % of control | dose: 50.0 mg/kg/injection, schedule: Q01DX009 (ip), vehicle: other 93 % of control and 101 % of control | dose: 100.0 mg/kg/injection, schedule: Q01DX009 (ip), vehicle: other 101 % of control | dose: 200.0 mg/kg/injection, schedule: Q01DX009 (ip), vehicle: other 101 % of control

CN(C)/N=C/c1ccccc1O
inactive: dose: 100.0 mg/kg/injection, schedule: Q01DX009 (ip), vehicle: saline 96 % of control | dose: 200.0 mg/kg/injection, schedule: Q01DX009 (ip), vehicle: saline 104 % of control | dose: 400.0 mg/kg/injection, schedule: Q01DX009 (ip), vehicle: saline 96 % of control

CSc1ccc(C(CNC(C)=O)C(C#N)C#N)cc1 (stereo unspecified)
inactive: [14] 101 % of control | [15] 103 % of control | [16] 89 % of control

N#CC(C#N)=C(c1ccccc1)C1CCCCC1
inactive: [14] 92 % of control | [15] 94 % of control | [16] 100 % of control

CCOC(=O)Cc1cc(=O)[nH][nH]c1=O
inactive: dose: 150.0 mg/kg/injection, schedule: Q04DX002 (ip), vehicle: Klucel (hydroxypropylcellulose) (HPC) 95 % of control | dose: 300.0 mg/kg/injection, schedule: Q04DX002 (ip), vehicle: Klucel (hydroxypropylcellulose) (HPC) 95 % of control

Clc1ccc([PH+](c2ccc(Cl)cc2)c2ccc(Cl)cc2)cc1.Clc1ccc([PH+](c2ccc(Cl)cc2)c2ccc(Cl)cc2)cc1.[Cl][Hg][Cl]
inactive: dose: 6.25 mg/kg/injection, schedule: Q01DX009 (ip), vehicle: Klucel (hydroxypropylcellulose) (HPC) 108 % of control | dose: 12.5 mg/kg/injection, schedule: Q01DX009 (ip), vehicle: Klucel (hydroxypropylcellulose) (HPC) 94 % of control | dose: 25.0 mg/kg/injection, schedule: Q01DX009 (ip), vehicle: Klucel (hydroxypropylcellulose) (HPC) 97 % of control | dose: 50.0 mg/kg/injection, schedule: Q01DX009 (ip), vehicle: Klucel (hydroxypropylcellulose) (HPC) 96 % of control

CCC[CH2][Pb]([CH2]CCC)([CH2]CCC)[n]1ccnc1
inactive: dose: 1.5 mg/kg/injection, schedule: Q01DX009 (ip), vehicle: Klucel (hydroxypropylcellulose) (HPC) 95 % of control | dose: 3.0 mg/kg/injection, schedule: Q01DX009 (ip), vehicle: Klucel (hydroxypropylcellulose) (HPC) 96 % of control | dose: 6.0 mg/kg/injection, schedule: Q01DX009 (ip), vehicle: Klucel (hydroxypropylcellulose) (HPC) 90 % of control | dose: 12.5 mg/kg/injection, schedule: Q04DX003 (ip), vehicle: Klucel (hydroxypropylcellulose) (HPC) 97 % of control | dose: 25.0 mg/kg/injection, schedule: Q04DX003 (ip), vehicle: Klucel (hydroxypropylcellulose) (HPC) 97 % of control | dose: 50.0 mg/kg/injection, schedule: Q01DX001 (ip), vehicle: saline 98 % of control | dose: 50.0 mg/kg/injection, schedule: Q04DX003 (ip), vehicle: Klucel (hydroxypropylcellulose) (HPC) 86 % of control | [14] 95 % of control | [15] 93 % of control

CSCCNC(=O)C(=O)NCCSC
inactive: dose: 100.0 mg/kg/injection, schedule: Q04DX002 (ip), vehicle: other 95 % of control | dose: 200.0 mg/kg/injection, schedule: Q04DX002 (ip), vehicle: other 88 % of control | dose: 400.0 mg/kg/injection, schedule: Q04DX002 (ip), vehicle: other 98 % of control

CC(C)OC(=O)Nc1cccc(C(F)(F)F)c1
inactive: [8] 103 % of control | [9] 88 % of control | [10] 106 % of control

CC1(C)C(N2CCCC2)N(C(=O)c2ccccc2)SC12c1ccccc1-c1ccccc12 (stereo unspecified)
inactive: [8] 102 % of control | [9] 105 % of control | [10] 98 % of control

O=S(=O)(Nc1ccccc1)c1ccccc1
inactive: [11] 98 % of control | [12] 107 % of control | [13] 98 % of control

CCCCCCCCCCCCc1ccc(/C(C)=N/NC(=O)c2ccc[n+](C)c2)cc1
inactive: [7] 93 % of control

CCCCCCCC(N)C(=O)O (stereo unspecified)
inactive: dose: 100.0 mg/kg/injection, schedule: Q04DX002 (ip), vehicle: gum acacia 95 % of control | dose: 200.0 mg/kg/injection, schedule: Q04DX002 (ip), vehicle: gum acacia 104 % of control | dose: 400.0 mg/kg/injection, schedule: Q04DX002 (ip), vehicle: gum acacia 88 % of control
